# Assay results from patent US8119689B2, “Adjuvants on the basis of bisacyloxypropylcystene conjugates and derivatives and their uses in pharmaceutical compositions” (Helmholtz-Zentrum Fuer Infektionsforschung GmbH, priority 2005, dated 2012).
# “Also recorded” adds a separate entry of the source.
# Key:
# [1] = test system: primary bone marrow-derived dendritic cells; test: In vitro stimulation of primary bone marrow-derived murine dendritic cells, surface markers by flow cytometry; type: cell-based, BALB/c mice; settings: CD11c+-gated DC, 50 ng/ml, 16 or 40 h pre-treatment
# Experimental: FIG. 1: FIGS. 1A-1C show the results for In vitro studies using primary dendritic cells. Primary bone marrow-derived dendritic cell cultures were obtained from BALB/c mice by in vitro maturation of precursors using recombinant GM-CSF (5×10^4 U/ml). Mature dendritic cells were stimulated with 10 ng/ml of E. coli lypopolysaccharide (LPS) or 50 and 100 ng/ml of BPPcysGlyc4armPEG and BPPcysAda, respectively. Then, cells were double-labeled with antibodies specific for CD11c (dendritic cell marker) in combination with anti-CD40, anti-CD54, anti-CD80, anti-CD86, anti-MHC class 1, or anti-MHC class 11 antibodies. The expression of CD40, CD80, CD54, CD86, anti-MHC class 1, and MHC class 11 in CD11c-gated cells were analyzed by flow cytometry.
# Experimental protocol: primary bone marrow-derived dendritic cell cultures were obtained from BALB/c mice following in vitro maturation of precursors in the presence of recombinant GM-CSF (5×10^4 U/ml), according to established protocols. Mature dendritic cells were stimulated with 10 ng/ml of E. coli lypopolysaccharide (LPS) or 5 ng/ml of BPPcysGlyc4armPEG, after 12, 24 and/or 48 h stimulation cells were analyzed by flow cytometry to assess the expression of surface markers which are relevant for their antigen presentation capacity.
# In order to identify compounds which may have potential as adjuvants for in vivo applications in the vaccinology field, a first in vitro screening based on the used of primary cultures of bone marrow-derived dendritic cells was established. Dendritic cells were selected since they represent the most efficient antigen presenting cells and they play a key role by primary immune responses. In fact, they are the only cell type able to activate resting T cells initiating primary immune responses in vivo. Thus, dendritic cell cultures were treated with the tested moieties or LPS, which was used as a positive control. At different time intervals, samples were taken, stained with fluorescent-labeled antibodies specific for cellular markers critical for the antigen presenting capacities of dendritic cells, and analyzed by flow cytometry.
# To test the stimulatory capacity of BPPCysAda on maturation and activation of bone marrow-derived DC, immature DC's were stimulated in vitro with BPPCysAda. Surface markers on CD11c+-gated DC were investigated by FACS analysis after 16 or 40 h pre-treatment.
# [2] = test system: β-gal-specific antibodies; test: Serum β-gal-specific IgG titers after i.n. or s.c. vaccination (ELISA); type: in vivo, BALB/c mice
# Experimental: FIG. 5: FIG. 5 illustrates the humoral responses following vaccination using BPPcysGlyc4armPEG and BPPcysAda, respectively, as adjuvant. Mice were immunised by intranasal (i.n.) and subcutaneous, transcutaneous (topical vaccination) (s.c.) routes with either β-galactosidase (30 μg) alone or β-galactosidase mixed with BPPcysGlyc4armPEG or BPPcysAda on days 0, 14 and 28. At day 38 post primary immunisation, serum samples were collected and the titre of 1-galactosidase-specific antibodies was determined by ELISA. As a control, a group in which animals were immunized with β-galactosidase alone was used (A). In (B) and (C) the kinetic of antigen specific serum IgG is shown for intranasal vaccination (B) and parenteral vaccination (C), respectively. […] Differences were statistically significant at p<0.05 (*) with respect to mice receiving antigen alone. One representative out of four independent experiments is shown. SEM is indicated by vertical lines.
# Experimental protocol: six-eight weeks-old female BALB/c (H-2d) mice were purchased from Harlan Winkelmann GmbH (Borchen, Germany) and treated in accordance with local and European Community guidelines. […] Endpoint titers were expressed as the reciprocal log2 of the last dilution, which gave an optical density at 405 nm of 0.1 units above the values of the negative controls after 15 to 30 min of incubation.
compound,measurement,setting,value
"CCCCCCCCCCCCCCCC(=O)OCC(CSC[C@H](N)C(=O)N[C@H]1[C@@H](O)[C@H](n2cnc3c(N)ncnc32)O[C@@H]1CO)OC(=O)CCCCCCCCCCCCCCC (single isomer, unassigned) [BPPcysAda, S-[2,3-bis(palmitoyloxy)-(2S or 2R)-propyl]-L-cysteinylcarboxy-3′Amino-3′-deoxyadenosine]",expression of MHC class I and II molecules,[1],increased expression
same,expression of the adhesion molecule ICAM-1 (CD54),[1],enhanced expression
same,expression of the co-stimulatory molecule CD86,[1],up-regulated
same,"β-gal-specific serum IgG titers, i.n. administration","[2]; i.n. with β-gal, vs antigen alone",enhanced expression; also recorded: very high titers; also recorded: significantly higher levels
same,"β-gal-specific serum IgG titers, s.c. route","[2]; s.c. co-injection with β-gal, vs β-gal alone",enhanced expression; also recorded: increased
